Assay results taken from ChEMBL document CHEMBL5608235, “Tricyclic Benzo[1,3]oxazinyloxazolidinones as Potent Antibacterial Agents against Drug-Resistant Pathogens” (J Med Chem, 2024).
In brackets after ≈: the same amount, converted by molar mass.

How the values were obtained:
[1] = system: Mycobacterium tuberculosis; test: Antibacterial activity against isoniazid/streptomycin/rifampicin/ethambutol/rifabutin/para-axminosalicylate/ofloxacin resistant Mycobacterium tuberculosis 13946 assessed as inhibition of bacterial growth incubated for 7 days by alamar blue assay; format: functional; conditions: Mycobacterium tuberculosis, 13946, 168 h; time 7 day
[2] = system: Mycobacterium tuberculosis; test: Antibacterial activity against isoniazid/streptomycin/rifampicin/ethambutol/para-axminosalicylate/prothionamide/capreomycin resistant Mycobacterium tuberculosis 14862 assessed as inhibition of bacterial growth incubated for 7 days by alamar blue assay; format: functional; conditions: Mycobacterium tuberculosis, 14862, 168 h; time 7 day

| SMILES | MIC [1] [µg/mL] | MIC [2] [µg/mL] |
| --- | --- | --- |
| COC(=O)NC[C@@H]1OC(=O)N2Cc3cc(-c4ccc(-c5nnn(C)n5)nc4)c(F)cc3O[C@@H]12 | 0.39 (≈ 0.856 µM) | 0.22 (≈ 0.483 µM) |
| COC(=O)NC[C@@H]1OC(=O)N2Cc3cc(-c4ccc(C#N)nc4)c(F)cc3O[C@@H]12 | 0.87 (≈ 2.18 µM) | 0.6 (≈ 1.51 µM) |
| CO[C@H]1/C=C/O[C@@]2(C)Oc3c(C)c(O)c4c(O)c(c(/C=N/N5CCN(C)CC5)c(O)c4c3C2=O)NC(=O)/C(C)=C\C=C\[C@H](C)[C@H](O)[C@@H](C)[C@@H](O)[C@@H](C)[C@H](OC(C)=O)[C@@H]1C [RIFAMPIN] | > 10 | > 10 |
| CC(=O)NC[C@@H]1OC(=O)N2Cc3c(cc(F)c(-c4ccc(-c5nnn(C)n5)nc4)c3F)O[C@@H]12 | 0.28 (≈ 0.612 µM) | 0.33 (≈ 0.721 µM) |
| CC(=O)NC[C@@H]1OC(=O)N2Cc3cc(-c4ccc(C#N)cc4)c(F)cc3O[C@@H]12 | 0.11 (≈ 0.288 µM) | 0.41 (≈ 1.08 µM) |
| COC(=O)NC[C@@H]1OC(=O)N2Cc3cc(-c4ccc(C#N)cc4)c(F)cc3O[C@@H]12 | 0.56 (≈ 1.41 µM) | 0.24 (≈ 0.604 µM) |
| NNC(=O)c1ccncc1 [ISONIAZID] | 4.78 (≈ 34.9 µM) | > 10 |
| CC(=O)NC[C@@H]1OC(=O)N2Cc3c(cc(F)c(-c4ccc(C#N)nc4)c3F)O[C@@H]12 | 0.48 (≈ 1.2 µM) | 0.47 (≈ 1.17 µM) |
